Reference: ChEMBL document CHEMBL1649114, “Effect of concomitant artesunate administration and cytochrome P4502C8 polymorphisms on the pharmacokinetics of amodiaquine in Ghanaian children with uncomplicated malaria” (Antimicrob Agents Chemother, 2008)

Key:
Design in all cases: dose 10 mg/kg, route oral
Homo sapiens [1] = assay: Tmax in children with uncomplicated malaria assessed as desethylamodiaquine at 10 mg/kg, po administered as single dose; type: ADME, organism-based; settings: in vivo
Homo sapiens [2] = assay: Cmax in children with uncomplicated malaria assessed as desethylamodiaquine at 10 mg/kg, po administered as single dose; type: ADME, organism-based; settings: in vivo
Homo sapiens [3] = assay: AUC in children with uncomplicated malaria assessed as desethylamodiaquine at 10 mg/kg, po administered as single dose; type: ADME, organism-based, Plasma; settings: in vivo
Homo sapiens [4] = assay: Toxicity in children with uncomplicated malaria assessed as bradycardia at 10 mg/kg, po administered as single dose; type: organism-based; settings: in vivo
Homo sapiens [5] = assay: Toxicity in children with uncomplicated malaria assessed as neutropenia at 10 mg/kg, po administered as single dose; type: organism-based; settings: in vivo
Homo sapiens [6] = assay: Toxicity in children with uncomplicated malaria assessed as excessive sleepiness at 10 mg/kg, po administered as single dose; type: organism-based; settings: in vivo
Homo sapiens [7] = assay: Toxicity in children with uncomplicated malaria assessed as elevated serum aminotransferase levels at 10 mg/kg, po administered as single dose; type: organism-based; settings: in vivo
Plasma = assay: Plasma concentration in children with uncomplicated malaria assessed as desethylamodiaquine at 10 mg/kg, po administered as single dose measured on day 3; type: ADME, organism-based; settings: human, in vivo
Homo sapiens [8] = assay: Toxicity in children with uncomplicated malaria assessed as pruritus at 10 mg/kg, po administered as single dose; type: organism-based; settings: in vivo

Tmax (Homo sapiens [1]) [h]	Cmax (Homo sapiens [2]) [ng/mL]	AUC (Homo sapiens [3]) [ng·h/mL]	Activity (Plasma) [ng/mL]	SMILES	Activity (Homo sapiens [4])	Activity (Homo sapiens [5])	Activity (Homo sapiens [6])	Activity (Homo sapiens [7])	Activity (Homo sapiens [8])
47.9	1185	38516		CCN(CC)Cc1cc(Nc2ccnc3cc(Cl)ccc23)ccc1O.Cl					
			156.6	CCNCc1cc(Nc2ccnc3cc(Cl)ccc23)ccc1O [DESETHYL AMODIAQUINE]	Toxic	Toxic	Toxic	Toxic	Toxic
